According to patent US20220144847A1, “HETEROCYCLIC COMPOUND, PHARMACEUTICAL COMPOSITION COMPRISING SAME, PREPARATION METHOD THEREFOR, AND USE THEREOF” (Sichuan Kelun-Biotech Biopharmaceutical Co., Ltd., priority 2019, published 2022):
Read-outs that look alike come from different tables or passages of the source.

What was measured:
Assay type in all cases: biochemical
[1] = biological target: RET-V804M (Homo sapiens, UniProt P07949, V804M); test: RET inhibition experiment (HTRF KinEASE-TK kit), mutant RET-V804M; settings: for inhibition at 0.1 µM / inhibition at 0.01 µM: read-out: Inhibition rate on RET-V804M; for inhibition at 0.01 µM: 10 nM (Table 2); for IC50: read-out: The IC50 (nM) for inhibiting V804M
Chain of RET-V804M (P07949 29-1114 V804M): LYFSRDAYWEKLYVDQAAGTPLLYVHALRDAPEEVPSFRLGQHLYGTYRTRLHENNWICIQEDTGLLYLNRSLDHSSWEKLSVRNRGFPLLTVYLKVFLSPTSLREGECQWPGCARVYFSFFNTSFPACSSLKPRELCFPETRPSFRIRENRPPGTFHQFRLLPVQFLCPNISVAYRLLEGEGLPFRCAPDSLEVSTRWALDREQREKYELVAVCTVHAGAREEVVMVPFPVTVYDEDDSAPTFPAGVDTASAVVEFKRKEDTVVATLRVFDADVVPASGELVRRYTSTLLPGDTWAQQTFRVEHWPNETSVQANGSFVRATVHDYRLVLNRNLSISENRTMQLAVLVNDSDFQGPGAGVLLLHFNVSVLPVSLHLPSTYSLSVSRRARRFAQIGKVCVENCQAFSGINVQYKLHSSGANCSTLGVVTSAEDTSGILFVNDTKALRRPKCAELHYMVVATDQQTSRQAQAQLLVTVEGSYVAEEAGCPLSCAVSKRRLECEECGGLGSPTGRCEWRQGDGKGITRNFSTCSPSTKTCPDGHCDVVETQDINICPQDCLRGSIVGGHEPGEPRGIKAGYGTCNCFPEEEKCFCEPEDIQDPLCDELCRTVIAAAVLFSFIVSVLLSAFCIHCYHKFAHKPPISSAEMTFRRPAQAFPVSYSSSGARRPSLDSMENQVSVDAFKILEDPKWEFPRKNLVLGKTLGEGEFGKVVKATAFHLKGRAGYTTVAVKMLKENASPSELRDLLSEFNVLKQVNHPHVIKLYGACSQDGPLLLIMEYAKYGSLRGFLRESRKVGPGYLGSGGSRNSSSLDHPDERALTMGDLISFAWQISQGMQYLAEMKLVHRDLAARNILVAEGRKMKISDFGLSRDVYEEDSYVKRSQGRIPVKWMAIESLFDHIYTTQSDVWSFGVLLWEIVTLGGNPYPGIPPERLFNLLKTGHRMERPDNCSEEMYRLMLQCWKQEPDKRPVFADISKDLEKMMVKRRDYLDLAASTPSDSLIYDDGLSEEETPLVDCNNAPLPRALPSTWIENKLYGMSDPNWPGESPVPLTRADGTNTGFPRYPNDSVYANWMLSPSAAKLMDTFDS
In short: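 Enzyme was pre-incubated with compound at room temperature for 30 min, then substrate and ATP were added for a 40 min reaction. HTRF signal was read after 45 min with TK antibody-cryptate and streptavidin-XL665. IC50 came from a four-parameter fit of percent inhibition against DMSO and no-enzyme controls.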

[2] = biological target: RET-M918T (Homo sapiens, UniProt P07949, M918T); test: RET inhibition experiment (HTRF KinEASE-TK kit), mutant RET-M918T; settings: for inhibition at 0.1 µM: read-out: Inhibition rate on RET-M918T
Chain of RET-M918T (P07949 29-1114 M918T): as the sequence (P07949 29-1114 V804M) above, with M776V, M890T counted along it
Description: (§1) Experimental method: […] After incubation at room temperature for 40 min, TK antibody-cryptate and streptavidin-XL665 were added, and the test was performed after incubation at room temperature for 45 min. With the solvent group (DMSO) as the negative control and the buffer group (without RET enzyme) as the blank control, the relative inhibitory activity percentages (i.e., inhibition rates) of different concentrations of the compounds were computed as per the following formula: […] The relative inhibitory activity percentages of different concentrations of the compounds were plotted with respect to the compound concentrations, and the curve was fitted according to a four-parameter model to compute the IC50 value as per the following formula: y=min+(max-min)/(1+(x/IC50)^(-Hillslope)) where y is the relative inhibitory activity percentage, max is the maximum value of the fitted curve, min is the minimum value of the fitted curve, x is the logarithmic concentration of the compound, and Hillslope is the slope of the curve.

[3] = biological target: VEGFR2 (Homo sapiens, UniProt P35968); test: VEGFR2 inhibition experiment (HTRF KinEASE-TK kit); settings: read-out: Inhibition rate on VEGFR2; for inhibition at 0.03 µM: 30 nM
Chain of VEGFR2 (P35968 20-1356, species assumed): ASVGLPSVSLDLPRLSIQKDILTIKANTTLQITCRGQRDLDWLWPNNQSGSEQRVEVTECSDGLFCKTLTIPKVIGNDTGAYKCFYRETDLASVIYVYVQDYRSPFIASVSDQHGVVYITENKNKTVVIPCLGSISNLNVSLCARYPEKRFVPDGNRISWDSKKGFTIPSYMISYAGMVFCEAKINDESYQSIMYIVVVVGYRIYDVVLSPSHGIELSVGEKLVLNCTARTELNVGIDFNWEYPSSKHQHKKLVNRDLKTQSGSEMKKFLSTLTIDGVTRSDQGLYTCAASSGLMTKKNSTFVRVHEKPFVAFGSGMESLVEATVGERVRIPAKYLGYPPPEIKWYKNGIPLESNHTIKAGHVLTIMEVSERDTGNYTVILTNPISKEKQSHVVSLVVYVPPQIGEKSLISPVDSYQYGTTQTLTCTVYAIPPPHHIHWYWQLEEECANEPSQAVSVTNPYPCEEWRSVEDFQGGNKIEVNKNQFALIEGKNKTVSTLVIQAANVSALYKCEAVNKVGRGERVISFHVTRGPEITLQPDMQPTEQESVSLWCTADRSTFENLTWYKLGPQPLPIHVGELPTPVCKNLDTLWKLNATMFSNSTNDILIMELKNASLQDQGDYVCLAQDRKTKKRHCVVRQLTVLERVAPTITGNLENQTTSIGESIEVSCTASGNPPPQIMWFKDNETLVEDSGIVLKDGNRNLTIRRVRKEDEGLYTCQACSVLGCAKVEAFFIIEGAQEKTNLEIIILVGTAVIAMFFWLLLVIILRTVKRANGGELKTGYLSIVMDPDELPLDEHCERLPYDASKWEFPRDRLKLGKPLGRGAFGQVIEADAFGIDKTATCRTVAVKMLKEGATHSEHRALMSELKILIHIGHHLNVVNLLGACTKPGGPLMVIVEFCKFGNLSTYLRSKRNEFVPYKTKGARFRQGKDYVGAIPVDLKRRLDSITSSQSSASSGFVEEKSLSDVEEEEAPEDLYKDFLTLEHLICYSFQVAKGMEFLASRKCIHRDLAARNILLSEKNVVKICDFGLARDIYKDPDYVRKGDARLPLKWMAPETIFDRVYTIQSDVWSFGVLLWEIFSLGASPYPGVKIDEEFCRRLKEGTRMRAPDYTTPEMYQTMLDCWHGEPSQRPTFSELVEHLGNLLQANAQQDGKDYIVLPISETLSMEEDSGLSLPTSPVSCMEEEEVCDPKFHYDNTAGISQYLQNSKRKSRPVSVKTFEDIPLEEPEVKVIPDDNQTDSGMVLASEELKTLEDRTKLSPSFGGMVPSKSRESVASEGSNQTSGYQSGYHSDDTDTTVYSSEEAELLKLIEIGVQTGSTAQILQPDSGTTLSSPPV
Description: Experimental method: According to the instructions of the HTRF KinEASE-TK kit (Cisbio), the compounds of the present disclosure were tested for their inhibitory effects on the VEGFR2 enzyme activity. After pre-incubation of the VEGFR2 enzyme and different concentrations of test compounds at room temperature for 30 min, a substrate and adenosine triphosphate (ATP) were added to initiate the reaction. After incubation at room temperature for 40 min, TK antibody-cryptate and streptavidin-XL665 were added, and the test was performed after incubation at room temperature for 45 min. With the solvent group (DMSO) as the negative control and the buffer group (without VEGFR2 enzyme) as the blank control, the relative inhibitory activity percentages (i.e., inhibition rates) of different concentrations of the compounds were computed as per the following formula:
Relative inhibitory activity percentage=1−(compound group of different concentrations−blank control)/(negative control−blank control)*100%
The relative inhibitory activity percentages of different concentrations of the compounds were plotted with respect to the compound concentrations, and the curve was fitted according to a four-parameter model to compute the IC50 value as per the following formula:
y=min+(max−min)/(1+(x/IC50)^(−Hillslope))
where y is the relative inhibitory activity percentage, max is the maximum value of the fitted curve, min is the minimum value of the fitted curve, x is the logarithmic concentration of the compound, and Hillslope is the slope of the curve.

[4] = biological target: T1, RET-CCDC6 (Homo sapiens, UniProt P07949); test: RET inhibition experiment (HTRF KinEASE-TK kit), fusion-type RET enzyme; settings: read-out: The IC50 (nM) for inhibiting RET-CCDC6
T1 construct: CCDC6 fusion partner (Q16204 for human); the other entry of the earlier key: CCDC6 (Q16204, Coiled-coil domain-containing protein 6)
T1 sequence (P07949 with tags, fused parts or gaps): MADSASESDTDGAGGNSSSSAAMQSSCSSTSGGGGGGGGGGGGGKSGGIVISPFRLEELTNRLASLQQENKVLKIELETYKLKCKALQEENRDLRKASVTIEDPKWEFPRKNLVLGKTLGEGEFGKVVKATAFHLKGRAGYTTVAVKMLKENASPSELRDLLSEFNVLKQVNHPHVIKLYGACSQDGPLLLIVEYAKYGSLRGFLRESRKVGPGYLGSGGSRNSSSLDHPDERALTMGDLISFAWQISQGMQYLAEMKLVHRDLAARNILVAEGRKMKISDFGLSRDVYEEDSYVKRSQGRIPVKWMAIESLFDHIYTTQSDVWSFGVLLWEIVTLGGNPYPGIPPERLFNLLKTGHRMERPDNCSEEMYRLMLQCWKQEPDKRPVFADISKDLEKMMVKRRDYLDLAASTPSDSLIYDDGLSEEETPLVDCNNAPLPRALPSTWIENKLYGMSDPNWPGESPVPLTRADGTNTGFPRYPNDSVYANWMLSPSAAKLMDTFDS
Description: as §1

[5] = compound concentration 100 nM (Table 1)

Compound: Cc1cc(Nc2cc(C)[nH]n2)nc(-c2ccc(N3CC4CC(C3)N4Cc3ccccc3)nc2)n1 [Compound 1, 2-(6-(6-benzyl-3,6-diazabicyclo[3.1.1]heptan-3-yl)pyridin-3-yl)-6-methyl-N-(5-methyl-1H-pyrazol-3-yl)pyrimidin-4-amine]
- inhibition at 0.1 µM [1]: 86%
- inhibition at 0.1 µM [2]: 33%
- inhibition at 0.1 µM [3]: 38%

Compound: COc1ccc(CN2C3CC2CN(c2ccc(-c4nc(C)cc(Nc5cc(C)[nH]n5)n4)cn2)C3)cc1 [Compound 2, 2-(6-(6-(4-methoxybenzyl)-3,6-diazabicyclo[3.1.1]heptan-3-yl)pyridin-3-yl)-6-methyl-N-(5-methyl-1H-pyrazol-3-yl)pyrimidin-4-amine]
- inhibition at 0.1 µM [1]: 93%
- inhibition at 0.1 µM [2]: 51%
- inhibition at 0.1 µM [3]: 29%

Compound: Cc1cc(Nc2cc(C)[nH]n2)nc(-c2ccc(N3CC4CC(C3)N4Cc3ccc(Cl)nc3)nc2)n1 [Compound 3, 2-(6-(6-((6-chloropyridin-3-yl)methyl)-3,6-diazabicyclo[3.1.1]heptan-3-yl)pyridin-3-yl)-6-methyl-N-(5-methyl-1H-pyrazol-3-yl)pyrimidin-4-amine]
- inhibition at 0.1 µM [1, 5]: 86%
- inhibition at 0.1 µM [2, 5]: 34%
- inhibition at 0.1 µM ([3]; 100 nM): 14%

Compound: COc1ccc(CN2C3CC2CN(c2ccc(-c4nc(C)cc(Nc5cc(C)[nH]n5)n4)cn2)C3)cn1 [Compound 4, 2-(6-(6-((6-methoxypyridin-3-yl)methyl)-3,6-diazabicyclo[3.1.1]heptan-3-yl)pyridin-3-yl)-6-methyl-N-(5-methyl-1H-pyrazol-3-yl)pyrimidin-4-amine]
- inhibition at 0.1 µM [2, 5]: 69%
- inhibition at 1 µM ([3]; 1000 nM): 52%

Compound: Cc1cc(Nc2cc(C)[nH]n2)nc(-c2ccc(N3CC4CC(C3)N4Cc3ccc(Cl)cn3)nc2)n1 [Compound 69, 2-(6-(6-((5-chloropyridin-2-yl)methyl)-3,6-diazabicyclo[3.1.1]heptan-3-yl)pyridin-3-yl)-6-methyl-N-(5-methyl-1H-pyrazol-3-yl)pyrimidin-4-amine]
- inhibition at 0.01 µM [1]: 56%
- IC50 ([2]; read-out: The IC50 (nM) for inhibiting the enzyme RET-M918T): 8.6 ± 1.46 nM
- IC50 [4]: 11 ± 9.65 nM
- inhibition at 0.1 µM ([3]; 100 nM): 2%

Compound: Cc1cc(Nc2cc(C)[nH]n2)nc(-c2ccc(N3CC4CC(C3)N4Cc3ccc(-c4ccc[nH]4)nc3)nc2)n1 [Compound 123, 2-(6-(6-((6-(1H-pyrrol-2-yl)pyridin-3-yl)methyl)-3,6-diazabicyclo[3.1.1]heptan-3-yl)pyridin-3-yl)-6-methyl-N-(5-methyl-1H-pyrazol-3-yl)pyrimidin-4-amine]
- IC50 [1]: 1.88 ± 0.11 nM
- inhibition at 0.03 µM [3]: 56%

Compound: Cc1cc(Nc2cc(C)[nH]n2)nc(-c2ccc(N3CC4CC(C3)N4Cc3ccc(-n4cc(F)c(C5CC5)n4)nc3)nc2)n1 [Compound 124, 2-(6-(6-((6-(3-cyclopropyl-4-fluoro-1H-pyrazol-1-yl)pyridin-3-yl)methyl)-3,6-diazabicyclo[3.1.1]heptan-3-yl)pyridin-3-yl)-6-methyl-N-(5-methyl-1H-pyrazol-3-yl)pyrimidin-4-amine]
- IC50 [1]: 10.7 ± 0.98 nM
- inhibition at 0.03 µM [3]: 41%

Compound: Cc1cc(Nc2cc(C)[nH]n2)nc(-c2ccc(N3CC4CC(C3)N4Cc3ccc(-c4cccn4C)nc3)nc2)n1 [Compound 128, 6-methyl-N-(5-methyl-1H-pyrazol-3-yl)-2-(6-(6-((6-(1-methyl-1H-pyrrol-2-yl)pyridin-3-yl)methyl)-3,6-diazabicyclo[3.1.1]heptan-3-yl)pyridin-3-yl)pyrimidin-4-amine]
- inhibition at 0.01 µM [1]: 48%
- inhibition at 0.1 µM ([3]; 100 nM): 20%

Compound: Cc1cc(Nc2cc(C)[nH]n2)nc(-c2ccc(N3CC4CC(C3)N4Cc3ccc(-c4cscn4)nc3)nc2)n1 [Compound 129, 6-methyl-N-(5-methyl-1H-pyrazol-3-yl)-2-(6-(6-((6-(thiazol-4-yl)pyridin-3-yl)methyl)-3,6-diazabicyclo[3.1.1]heptan-3-yl)pyridin-3-yl)pyrimidin-4-amine]
- inhibition at 0.01 µM [1]: 84%
- inhibition at 0.03 µM [3]: 52%

Compound: Cc1cc(Nc2cc(C)[nH]n2)nc(-c2ccc(N3CC4CC(C3)N4Cc3ccc(-c4ccc(F)[nH]4)nc3)nc2)n1 [Compound 131, 2-(6-(6-((6-(5-fluoro-1H-pyrrol-2-yl)pyridin-3-yl)methyl)-3,6-diazabicyclo[3.1.1]heptan-3-yl)pyridin-3-yl)-6-methyl-N-(5-methyl-1H-pyrazol-3-yl)pyrimidin-4-amine]
- inhibition at 0.01 µM [1]: 72%
- inhibition at 0.03 µM [3]: 50%

Compound: Cc1cc(Nc2cc(C)[nH]n2)nc(-c2ccc(N3CC4CC(C3)N4Cc3ccc(-c4ccn[nH]4)nc3)nc2)n1 [Compound 132, 2-(6-(6-((6-(1H-pyrazol-5-yl)pyridin-3-yl)methyl)-3,6-diazabicyclo[3.1.1]heptan-3-yl)pyridin-3-yl)-6-methyl-N-(5-methyl-1H-pyrazol-3-yl)pyrimidin-4-amine]
- inhibition at 0.01 µM [1]: 84%
- inhibition at 0.03 µM [3]: 31%

Compound: Cc1cc(Nc2cc(C)[nH]n2)nc(-c2ccc(N3CC4CC(C3)N4Cc3ccc(-c4ccc(C)o4)nc3)nc2)n1 [Compound 133, 6-methyl-N-(5-methyl-1H-pyrazol-3-yl)-2-(6-(6-((6-(5-methylfuran-2-yl)pyridin-3-yl)methyl)-3,6-diazabicyclo[3.1.1]heptan-3-yl)pyridin-3-yl)pyrimidin-4-amine]
- inhibition at 0.01 µM [1]: 82%
- inhibition at 0.05 µM ([3]; 50 nM): 28%

Compound: Cc1cc(Nc2cc(C)[nH]n2)nc(-c2ccc(N3CC4CC(C3)N4Cc3ccc(-c4cnn(C(C)C)c4)nc3)nc2)n1 [Compound 135, 2-(6-(6-((6-(1-isopropyl-1H-pyrazol-4-yl)pyridin-3-yl)methyl)-3,6-diazabicyclo[3.1.1]heptan-3-yl)pyridin-3-yl)-6-methyl-N-(5-methyl-1H-pyrazol-3-yl)pyrimidin-4-amine]
- inhibition at 0.01 µM [1]: 65%
- inhibition at 0.1 µM ([3]; 100 nM): 34%

Compound: Cc1cc(Nc2cc(C)[nH]n2)nc(-c2ccc(N3CC4CC(C3)N4Cc3ccc(-n4nccc4C(C)(C)O)nc3)nc2)n1 [Compound 136, 2-(1-(5-((3-(5-(4-methyl-6-((5-methyl-1H-pyrazol-3-yl)-amino)pyrimidin-2-yl)pyridin-2-yl)-3,6-diazabicyclo[3.1.1]heptan-6-yl)methyl)pyridin-2-yl)-1H-pyrazol-5-yl)propan-2-ol]
- IC50 [1]: 2.35 ± 0.13 nM
- inhibition at 0.03 µM [3]: 18%

Compound: Cc1cc(Nc2cc(C)[nH]n2)nc(-c2ccc(N3CC4CC(C3)N4Cc3ccc(-n4ccc(CO)n4)nc3)nc2)n1 [Compound 137, (1-(5-((3-(5-(4-methyl-6-((5-methyl-1H-pyrazol-3-yl)-amino)pyrimidin-2-yl)pyridin-2-yl)-3,6-diazabicyclo[3.1.1]heptan-6-yl)methyl)pyridin-2-yl)-1H-pyrazol-3-yl)methanol]
- inhibition at 0.01 µM [1]: 93%
- inhibition at 0.03 µM [3]: 26%
